Experimental data published in patent publication US20170239212A1, “[…] AND USE THEREOF AS ANTIVIRAL AGENTS” (priority 2014, published 2017).
pEC50: −log10 of the molar value.

Legend:
[1] = tested on: human osteosarcoma (HOS) cells; experiment: HOS cell viability (CellTiter-Glo, cellular ATP); format: cell-based; set-up: unit not given here; settings: knock down of cellular ATP
Method: (§1) Specifically, EC50 and CC50 values were determined in parallel using 10 concentrations of compound from 3 fold serial dilutions starting a 5 uM as the highest concentration. Cells and media were added to compounds with a final concentration of DMSO of 1% and incubated at 37° C., 5% CO2 for 24, 48 and 72 hours. EC50 was measured by induced luciferase activity detected by the use of the Steady-Glo® Luciferase reagent (PROMEGA) with an EnVision (Perkin-Elmer) plate reader. CC50 was determined by the dose dependent knock down of cellular ATP detected by the use of CellTiter-Glo® Luminescent Cell Viability reagent (PROMEGA) with an EnVision (Perkin-Elmer) plate reader.

[2] = tested on: K-562 human myelocytic leukemia cell line; experiment: Proliferation of K-562 cells; format: cell-based; settings: maximally effective concentration, 72 hours, vs DMSO control
Method: K562 cells were counted after 3 day treatment with different concentrations of PMA (0.1, 1, 10, 100, 1000 nM), bryostatin 1 (0.1, 1, 10, 100, 1000 nM), the bryologues MERLE 21, 22, or 23 (1, 10, 100, 1000, 5000 nM) or DMSO as control. The number of cells is presented as % of the DMSO-treated control. Data represent the means±SEM of three independent experiments.
K-562 cells, from the Biological Testing Branch, National Cancer Institute, NIH (Frederick, Md.), were grown under usual conditions in RPMI-1640, supplemented with 10% fetal bovine serum. 72 hours after treatment with different drugs or DMSO the cell number was determined using a Beckman particle counter (Beckman Coulter Inc., Fullerton, Calif.).

U937 cells = experiment: Attachment of U937 cells; format: cell-based, human; settings: 72 hours; for Block of PMA-induced attachment of U937 cells: 10 nM PMA with different concentrations of compound; for Attachment of U937 cells (attached cells as percent of total): compound alone
Method: U937 cells (Sundstrom, C.; Nilsson, K.: Establishment and characterization of a human histiocytic lymphoma cell line (U-937). Int. J. Cancer 1976, 17: 565-577), purchased from ATCC (Manassas, Va.) and cultured in RPMI-1640 medium supplemented with 10% FBS (ATCC, Manassas, Va.), were plated in 35 mm dishes at a density of 2×10^5 living cells/ml and treated with different concentrations of the drugs or DMSO. After 72 hours, the number of cells in the supernatant (non-attached cells) and the number of attached cells (after trypsinization) were counted using a Beckman particle counter (Beckman Coulter Inc., Fullerton, Calif.). The number of attached cells is expressed as percent of total cells (FIGS. 8-10).
(§2) U937 cells were treated with PMA (0.1-100 nM), bryostatin 1 (1-1000 nM), the indicated compound (1-1000 nM), 10 nM PMA with different concentrations of bryostatin 1 (1-1000 nM) or 10 nM PMA with different concentrations of indicated compound (1-1000 nM) for 72 hours. The number of attached cells and total cells were counted and the attached cells were graphed as percent of total cells. The bars and error bars represent the average and the standard error of the mean of five independent experiment (FIGS. 8-10).
(§3) U937 cells (Sundstrom and Nilsson, 1976), purchased from ATCC (Manassas, Va.) and cultured in RPMI-1640 medium supplemented with 10% FBS (ATCC, Manassas, Va.), were plated in 35 mm dishes at a density of 1×10^5 living cells/ml and treated with different concentrations of the drugs or DMSO. After 72 hours, the number of cells in the supernatant (non-attached cells) and the number of attached cells (after trypsinization) were counted using a particle counter. The number of attached cells is expressed as percent of total cells.
U937 cells were treated with PMA (0.01-100 nM), bryostatin 1 (0.1-1000 nM), analogue 12 (MERLE 28) (0.1-1000 nM), 10 nM PMA with different concentrations of bryostatin 1 (0.1-1000 nM) or 10 nM PMA with different concentrations of analogue 12 (0.1-1000 nM). The number of attached cells and total cells were counted and the attached cells were graphed as percent of total cells. The bars and error bars represent the average and the standard error of the mean of at least three independent experiments.
as §3
as §2, with “at least three” for “five”, “experiments.” for “experiment (FIGS. 8-10).”

[3] = tested on: HIV long terminal repeat (LTR) promoter; experiment: HOS LTR stimulation assay (luciferase reporter); format: cell-based
Method: In the assay, non T cell derived human osteosarcoma (HOS) cells are transfected with a luciferase reporter under control of an HIV long terminal repeat (LTR) promoter. Compounds that stimulate the HIV LTR promoter will produce luciferase in a dose dependent manner.
as §1
The error bars represent the average and the standard error of the mean of at least three independent experiments.

Jurkat cell line = experiment: in vitro; format: cell-based; settings: Jurkat cells, knock down of cellular ATP
Method: as §1, with “The compounds were also tested in the T cell derived Jurkat cell line transfected with a luciferase reporter under control of an HIV long terminal repeat (LTR) promoter. Specifically,” for “Specifically,”

[4] = biological target: HIV long terminal repeat (LTR) promoter; experiment: in vitro; format: cell-based; settings: Jurkat cells
Method: as §1, with “The compounds were also tested in the T cell derived Jurkat cell line transfected with a luciferase reporter under control of an HIV long terminal repeat (LTR) promoter. Specifically,” for “Specifically,”

Row | Structure (SMILES) | CCEC50 [1] | Maximal inhibition of K-562 cell growth [2] [%] | Block of PMA-induced attachment of U937 cells (U937 cells) | Block of PMA-induced attachment of U937 cells (U937 cells; listed as bryostatin 1) | Attachment of U937 cells (attached cells as percent of total) (U937 cells) | Attachment of U937 cells (attached cells as percent of total) (U937 cells; listed as bryostatin 1) | Max signal (% of control) ([3]; HOS cells, LTR-luciferase signal) | Conc (uM) at Max ([3]; HOS cells, concentration at maximal LTR-luciferase signal) [µM] | pEC50 ([3]; Human immunodeficiency virus 1, HOS) | CC50 (Jurkat cell line) [nM] | pEC50 ([4]; LTR-luciferase, incubated 24, 48 and 72 hours (time of the listed values not stated)) | Selectivity (CC50:EC50) ([4]; ratio of the CC50 to the EC50)
1 | CCC/C=C/C=C/C(=O)O[C@H]1/C(=C/C(=O)OC)C[C@H]2C[C@H]([C@@H](C)O)OC(=O)C[C@H](O)C[C@@H]3C[C@H](OC(C)=O)C(C)(C)[C@](O)(C[C@@H]4C/C(=C/C(=O)OC)C[C@H](/C=C/C(C)(C)[C@]1(O)O2)O4)O3 [Bryostatin 1] | >5 | 31.8±9.2 | blocks the effect of the phorbol ester | blocks the effect of the phorbol ester in a dose-dependent manner | has much less effect on either response | much diminished effect | 157 % of control | 2.51 | 8.70 |  |  | 
2 | CCCCCCCCCCCCCC(=O)O[C@@H]1[C@@H](C)[C@@]2(O)[C@@H](C=C(CO)C[C@]3(O)C(=O)C(C)=C[C@@H]23)[C@@H]2C(C)(C)[C@]12OC(C)=O [PMA, phorbol 12-myristate 13-acetate] |  |  |  |  | induces attachment |  |  |  |  | 0.1 | 10.00 | 1
